We go through one compound from US10913773B2, “Bicyclic peptidyl inhibitor of tumor necrosis factor-alpha” (Ohio State Innovation Foundation, priority 2016, dated 2021).

The test deals with TNFα-induced cell death in WEHI-13VAR fibroblasts (recombinant human TNFα). The class given is cell-based. On the procedure: WEHI-13VAR fibroblasts were purchased from American Type Culture Collection (ATCC). For maintenance, cells were grown in full medium as RPMI-1640 supplemented with 10% FBS and 1% Abs. For toxicity assay, cells were seeded in a 96-well plate at a density of 5×10^3 cells/well in 100 μL of RPMI-1640/1% Abs supplemented with 10% or 5% FBS and allowed to grow overnight. Varying concentrations of recombinant human TNFα (0-250 ng/mL) or commercial mouse TNFα were (0-100 pg/mL) were incubated with 10 μM peptide and actinomycin D (1 μg/mL) in 100 μL of corresponding growth medium for 1 h at 37° C. Next, the medium in the 96-well plate was removed and replaced with the above fresh mixture and the cells were incubated overnight. Next day, 10 μL of the 3-(4, 5-dimethylthiazolyl-2)-2, 5-diphenyltetrazolium bromide (MTT, final concentration 0.5 mg/ml) was added to each well and incubated at 37° C. for 3 h, following by the addition of 100 μL of the MTT solubilization solution. The plate was kept in the incubator overnight to let the formazan crystals to completely dissolve, and the absorbance at 570 nm was measured on a TECAN plate reader. The LD50 was obtained as plotting the viability as a function of the TNFα concentration.
One of the biological functions of TNFα is to induce death signaling. Inhibitors against the TNFα-TNFR interaction are expected to protect cells against TNFα induced cell death. Therefore, anticachexin C1, C1-74, and C1-74-2 through C1-74-5 were compared for their ability to protect cultured WEHI-13 VAR fibroblasts, which are highly sensitive to TNFα in the presence of actinomycin-D, against TNFα-induced cell death (Khabar, K. S. A.; et al., “WEHI-13VAR: A Stable and Sensitive Variant of WEHI 164 Clone 13 Fibrosarcoma for Tumor Necrosis Factor Bioassay.” Immunol. Lett. 1995, 46:107-110). The cells were treated with a fixed concentration of peptides (10 μM) and varying concentrations of TNFα (0-1 μM), and the fraction of live cells was quantitated by the 3-(4,5-dimethylthiazol-2-yl)-2,5-diphenyltetrazolium bromide (MTT) assay. […] The MTT assay was also conducted at a fixed concentration of TNFα (0.4 ng/mL) but varying concentrations of peptides (0-10 μM).

The EC50 is the midpoint of the concentration-response curve. Take `CC(=O)[C@@H]1CCCN(C(=O)[C@@H](Cc2c[nH]cn2)NC(=O)C(N)C(C)C)C1` (some centres unmarked) [Compound C1-74-2]: the EC50 is around 50 nM. Under “0.4 ng/mL TNFα”, the “Concentration giving almost complete protection” value is at least 100 nM.
